Results: US20120252820A1, “METHODS OF TREATING FUNGAL INFECTIONS” (NORTHEASTERN UNIVERSITY, priority 2008, published 2012)
In brackets after ≈: the same amount, converted by molar mass.

Key:
[1] = test system: C. albicans 3153A biofilms; test: Biofilm killing by antifungals, CFU determination; format: cell-based, Candida albicans; conditions: for killing curve of biofilm: dose-dependent, 24 hrs challenge
Protocol: (§1) Biofilms of C. albicans 3153A cells were cultured in wells of microtiter plates in RPMI medium for 48 hrs (Ramage et al., Antimicrob. Agents Chemother. 45:2475-2479 (2001)), washed twice in PBS, pH 7.4, to remove nonadherent cells, and resuspended in 100 μl RPMI growth medium containing antifungals. After 24 hrs of antifungal challenge, the biofilms and cultures were washed twice, resuspended in 100 μl PBS, scraped, transferred into eppendorf tubes, vortexed and plated for colony forming unit (CFU) determination on YPD medium. […] This could lead to an underestimation of surviving cells by a factor of ≦10. In parallel, exponentially growing and stationary planktonic cultures were grown for 48 hrs in RPMI medium, and then antifungals were added for 24 hrs. The experiment was performed in triplicate and error bars indicate standard deviation (see FIGS. 1A-1B).
Biofilms were grown in microtiter plates and were treated with amphotericin B or chlorhexidine (100 μg/ml) for 24 hrs, after which they were washed and vortexed, as discussed above. The cells were then reinoculated into microtiter plates to form new biofilms. The new biofilms, derived from persisters that survived drug treatment, were again treated with the antifungal agents (as discussed above), and the procedure was repeated a total of 3 times. Biofilms were sampled for CFU determination before and after antifungal treatment. The experiment was performed in triplicate.
Tests were also performed to determine if yeast persisters were multidrug tolerant. Mature, 48 hr biofilms of C. albicans were challenged for 24 hrs with 100 μg/ml amphotericin B, 100 μg/ml chlorhexidine, or a combination of these two antifungal agents, using the same procedures discussed above. Biofilms were washed and sampled for CFU determination before and after antifungal treatment, as discussed above.

[2] = test system: C. albicans 3153A planktonic cultures; test: Killing of exponentially growing and stationary planktonic cultures, CFU determination; format: cell-based, Candida albicans; conditions: planktonic cultures in RPMI, antifungal 24 hrs
Protocol: as §1

[3] = test system: Biofilm-Deficient Strains of C. albicans; test: Persister formation by biofilm-deficient strains (survival to high levels of amphotericin B); format: cell-based, Candida albicans
Protocol: as §1
Given that persisters appeared only in the biofilm, their formation was dependent on the same genes/pathways that determine biofilm development. A large panel of biofilm-defective mutants was therefore tested for their ability to produce persisters by measuring survival to high levels of amphotericin B. These mutants were able to adhere to the surface of a microtiter plate, making it possible to assay in the biofilm survival protocol described above. All strains appeared to produce essentially normal levels of persisters (Table 1).

[4] = test system: C. albicans; test: MIC; format: cell-based; conditions: Candida albicans

Structure (SMILES): CC[C@H](C)C[C@H](C)CCCCCCCCC(=O)N[C@H]1C[C@@H](O)[C@@H](NCCN)NC(=O)[C@@H]2[C@@H](O)CCN2C(=O)[C@H]([C@H](O)CCN)NC(=O)[C@H]([C@H](O)[C@@H](O)c2ccc(O)cc2)NC(=O)[C@@H]2C[C@@H](O)CN2C(=O)[C@H]([C@@H](C)O)NC1=O [Caspofungin, caspofungin]
- killing of biofilms ([1]; C. albicans 3153A biofilms, 24 hrs antifungal challenge, CFU): ≤ 10 fold

Structure (SMILES): C[C@@H]1[C@H](O)[C@@H](C)/C=C/C=C/C=C/C=C/C=C/C=C/C=C/[C@H](O[C@@H]2O[C@H](C)[C@@H](O)[C@H](N)[C@@H]2O)C[C@@H]2O[C@](O)(C[C@@H](O)C[C@@H](O)[C@H](O)CC[C@@H](O)C[C@@H](O)CC(=O)O[C@H]1C)C[C@H](O)[C@H]2C(=O)O [amphotericin B]
- cells invulnerable (persisters) in biofilm ([1]; biofilm, higher concentrations of the drug, 24 hrs): More than 1%
- killing curve of biofilm ([1]; CFU): biphasic killing
- killing of exponentially growing and stationary cells [2]: effectively killed
- Persisters ([3]; strain 3153A, control wild type): +++^1 (+++ indicates 1-2% survival)
- Persisters ([3]; strain CAI4): +^3 (+ indicates 0.05-0.1% survival)
- Persisters ([3]; strain CJN698 (bcr1 with BCR1)): ++ (++ indicates 0.1-1% survival)
- Persisters ([3]; strain CJN702 (bcr1)): ++ (++ indicates 0.1-1% survival)
- Persisters ([3]; strain CKY136 (efg1)): +++ (+++ indicates 1-2% survival)
- Persisters ([3]; strain CKY138 (efg1 cph1Δ)): ++ (++ indicates 0.1-1% survival)
- Persisters ([3]; strain CKY357 (mkc1Δ)): ++^2 (++ indicates 0.1-1% survival)
- Persisters ([3]; strain DAY185): ++ (++ indicates 0.1-1% survival)
- Persisters ([3]; strain DAY286): ++ (++ indicates 0.1-1% survival)
- Persisters ([3]; strain GKO9 (mds3)): ++ (++ indicates 0.1-1% survival)
- Persisters ([3]; strain GKO443 (suv3)): ++ (++ indicates 0.1-1% survival)
- Persisters ([3]; strain GKO798 (kem1)): ++ (++ indicates 0.1-1% survival)
- Persisters ([3]; strain GKO814 (nup85)): ++ (++ indicates 0.1-1% survival)
- Persisters ([3]; strain MC191 (flo8/flo8)): +++ (+++ indicates 1-2% survival)
- Persisters ([3]; strain MC195 (flo8 with FLO8-2)): + (+ indicates 0.05-0.1% survival)
- Persisters ([3]; strain MC245 (flo8/FLO8)): ++ (++ indicates 0.1-1% survival)

Structure (SMILES): [H]/N=C(\N/C(=N/[H])NCCCCCCNC(=N)NC(=N)Nc1ccc(Cl)cc1)Nc1ccc(Cl)cc1 [chlorhexidine]
- concentration above which killing of persisters was observed ([1]; biofilm, 24 hrs): above 100 μg/ml
- concentration at which the biofilm was completely sterilized ([1]; biofilm, 24 hrs): 1000 µg/mL
- killing curve of biofilm ([1]; CFU): biphasic killing
- killing of exponentially growing and stationary cells [2]: eliminated
- MIC [4]: 4 µg/mL (≈ 7.91 µM)
